Assay results taken from patent US10494378B2, “Fused ring pyrimidine compound, intermediate, and preparation method, composition and use thereof” (GUANGZHOU MAXINOVEL PHARMACEUTICALS CO., LTD., priority 2015, dated 2019).

Columns and labels:
Format in all cases: biochemical
JAK1 kinase = molecular target: T1, JAK1 kinase (Homo sapiens, UniProt P23458); test: IC50 evaluation assay on JAK1 kinase inhibition (Caliper); conditions: adenosine triphosphate at Km; 1 hour at 28° C.; average of two tests; read-out: IC50 (nM) inhibiting JAK 1 kinase
T1 construct: purchased Carna 08-144
T1 sequence (P23458 whole entry): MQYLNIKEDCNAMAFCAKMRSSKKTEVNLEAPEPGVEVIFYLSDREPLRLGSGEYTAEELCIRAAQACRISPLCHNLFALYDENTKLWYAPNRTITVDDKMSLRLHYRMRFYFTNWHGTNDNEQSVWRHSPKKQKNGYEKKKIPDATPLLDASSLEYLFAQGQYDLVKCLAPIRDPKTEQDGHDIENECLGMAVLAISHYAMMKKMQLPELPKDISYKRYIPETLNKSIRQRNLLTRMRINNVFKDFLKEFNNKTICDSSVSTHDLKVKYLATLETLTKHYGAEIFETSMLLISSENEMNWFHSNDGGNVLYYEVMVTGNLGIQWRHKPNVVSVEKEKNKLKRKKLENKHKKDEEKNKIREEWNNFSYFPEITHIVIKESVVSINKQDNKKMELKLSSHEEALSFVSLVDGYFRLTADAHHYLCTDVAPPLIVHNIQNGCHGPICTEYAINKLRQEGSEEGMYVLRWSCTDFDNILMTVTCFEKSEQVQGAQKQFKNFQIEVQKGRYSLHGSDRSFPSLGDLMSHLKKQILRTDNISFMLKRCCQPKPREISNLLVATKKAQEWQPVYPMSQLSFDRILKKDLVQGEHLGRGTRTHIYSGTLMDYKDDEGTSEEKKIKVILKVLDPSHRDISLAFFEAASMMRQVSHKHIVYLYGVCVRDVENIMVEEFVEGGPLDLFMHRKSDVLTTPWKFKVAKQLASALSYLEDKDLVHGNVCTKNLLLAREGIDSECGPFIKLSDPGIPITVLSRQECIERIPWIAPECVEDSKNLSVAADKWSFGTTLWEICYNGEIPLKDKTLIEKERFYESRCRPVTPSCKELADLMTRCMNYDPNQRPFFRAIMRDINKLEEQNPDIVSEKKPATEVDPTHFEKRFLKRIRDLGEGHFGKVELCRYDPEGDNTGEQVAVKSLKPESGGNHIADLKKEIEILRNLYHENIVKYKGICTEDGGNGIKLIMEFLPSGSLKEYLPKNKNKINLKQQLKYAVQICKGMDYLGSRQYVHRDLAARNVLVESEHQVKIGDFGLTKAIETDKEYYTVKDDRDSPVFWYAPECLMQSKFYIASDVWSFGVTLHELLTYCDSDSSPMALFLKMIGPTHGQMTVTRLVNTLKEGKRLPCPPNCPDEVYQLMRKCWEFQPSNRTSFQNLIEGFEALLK
Procedure: (§1) 1. The compound was dissolved in 100% DMSO, diluted into solutions with appropriate concentration gradients with water according to experimental requirement, and added to a 384-well plate.
(§2) 2. JAK2 kinase (Carna, Cat. No. 08-045, Lot. No. 07CBS-1927) and JAK3 kinase (Carna, Cat. No. 08-046, Lot. No. 08CBS-0371) were diluted to the optimum concentration with the following buffer solution: 50 mM HEPES, pH 7.5, 0.0015% Brij-35, 2 mM DTT. JAK1 kinase (Carna, Cat. No. 08-144, Lot. No. 11CBS-0144D) was diluted to the optimum concentration with the following buffer solution: 25 mM HEPES pH 7.5, 0.01% Brij-35, 2 mM DTT, 0.01M Triton. Transfer to the 384-well plate and incubated with the compound for a period of time.
(§3) 3. […] The substrate of JAK1 was diluted to the optimum concentration with the following buffer: 25 mM HEPES, pH 7.5, 0.01% Brij-35, 10 mM MgCl2, 0.01M Triton, adenosine triphosphate at Km. Add to the 384-well plate to initiate there action and react for 1 hour at 28° C.
(§4) 4. 1 Eq. of sulfuric acid solution was added to terminate the reaction, the conversion rate was read with Caliper Reader. The inhibition rate was calculated as the average of two tests.

JAK2 kinase = molecular target: T2, JAK2 kinase (Homo sapiens, UniProt O60674); test: IC50 evaluation assay on JAK2 kinase inhibition (Caliper); conditions: adenosine triphosphate at Km; 1 hour at 28° C.; average of two tests; read-out: IC50 (nM) inhibiting JAK 2 kinase
T2 construct: purchased Carna 08-045
T2 sequence (O60674 whole entry): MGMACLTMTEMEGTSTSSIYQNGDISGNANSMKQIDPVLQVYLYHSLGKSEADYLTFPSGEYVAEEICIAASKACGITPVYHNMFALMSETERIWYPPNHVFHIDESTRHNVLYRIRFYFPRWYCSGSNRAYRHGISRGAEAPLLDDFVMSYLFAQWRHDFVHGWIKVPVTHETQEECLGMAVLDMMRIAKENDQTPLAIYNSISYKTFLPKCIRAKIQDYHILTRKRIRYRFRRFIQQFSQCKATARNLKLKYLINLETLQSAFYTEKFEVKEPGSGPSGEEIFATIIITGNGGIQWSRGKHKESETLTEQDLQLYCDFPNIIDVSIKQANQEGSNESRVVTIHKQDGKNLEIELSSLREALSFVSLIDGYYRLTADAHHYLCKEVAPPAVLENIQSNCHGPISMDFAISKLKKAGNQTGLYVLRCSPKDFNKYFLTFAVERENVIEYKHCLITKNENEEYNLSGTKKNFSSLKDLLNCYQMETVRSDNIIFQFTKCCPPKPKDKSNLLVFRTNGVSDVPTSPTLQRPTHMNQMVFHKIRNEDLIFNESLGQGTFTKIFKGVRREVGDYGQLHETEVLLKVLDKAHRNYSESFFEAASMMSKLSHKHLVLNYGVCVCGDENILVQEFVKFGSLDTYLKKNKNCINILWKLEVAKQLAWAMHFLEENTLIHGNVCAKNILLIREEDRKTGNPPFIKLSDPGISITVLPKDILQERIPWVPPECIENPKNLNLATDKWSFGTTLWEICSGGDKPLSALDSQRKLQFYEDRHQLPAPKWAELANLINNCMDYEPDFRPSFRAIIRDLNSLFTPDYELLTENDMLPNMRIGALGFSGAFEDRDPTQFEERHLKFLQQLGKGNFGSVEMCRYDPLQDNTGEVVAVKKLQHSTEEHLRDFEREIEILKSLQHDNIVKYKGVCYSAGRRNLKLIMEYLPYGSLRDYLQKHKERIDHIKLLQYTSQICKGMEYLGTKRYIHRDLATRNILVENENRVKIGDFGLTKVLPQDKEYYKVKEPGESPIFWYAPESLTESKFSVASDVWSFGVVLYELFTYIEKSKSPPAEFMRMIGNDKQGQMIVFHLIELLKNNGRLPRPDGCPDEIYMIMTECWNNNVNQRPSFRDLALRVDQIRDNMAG
Procedure: as §1, §2, §3, §4

JAK3 kinase = molecular target: T3, JAK3 kinase (Homo sapiens, UniProt P52333); test: IC50 evaluation assay on JAK3 kinase inhibition (Caliper); conditions: adenosine triphosphate at Km; 1 hour at 28° C.; average of two tests; read-out: IC50 (nM) inhibiting JAK 3 kinase
T3 construct: purchased Carna 08-046
T3 sequence (P52333 1-1124): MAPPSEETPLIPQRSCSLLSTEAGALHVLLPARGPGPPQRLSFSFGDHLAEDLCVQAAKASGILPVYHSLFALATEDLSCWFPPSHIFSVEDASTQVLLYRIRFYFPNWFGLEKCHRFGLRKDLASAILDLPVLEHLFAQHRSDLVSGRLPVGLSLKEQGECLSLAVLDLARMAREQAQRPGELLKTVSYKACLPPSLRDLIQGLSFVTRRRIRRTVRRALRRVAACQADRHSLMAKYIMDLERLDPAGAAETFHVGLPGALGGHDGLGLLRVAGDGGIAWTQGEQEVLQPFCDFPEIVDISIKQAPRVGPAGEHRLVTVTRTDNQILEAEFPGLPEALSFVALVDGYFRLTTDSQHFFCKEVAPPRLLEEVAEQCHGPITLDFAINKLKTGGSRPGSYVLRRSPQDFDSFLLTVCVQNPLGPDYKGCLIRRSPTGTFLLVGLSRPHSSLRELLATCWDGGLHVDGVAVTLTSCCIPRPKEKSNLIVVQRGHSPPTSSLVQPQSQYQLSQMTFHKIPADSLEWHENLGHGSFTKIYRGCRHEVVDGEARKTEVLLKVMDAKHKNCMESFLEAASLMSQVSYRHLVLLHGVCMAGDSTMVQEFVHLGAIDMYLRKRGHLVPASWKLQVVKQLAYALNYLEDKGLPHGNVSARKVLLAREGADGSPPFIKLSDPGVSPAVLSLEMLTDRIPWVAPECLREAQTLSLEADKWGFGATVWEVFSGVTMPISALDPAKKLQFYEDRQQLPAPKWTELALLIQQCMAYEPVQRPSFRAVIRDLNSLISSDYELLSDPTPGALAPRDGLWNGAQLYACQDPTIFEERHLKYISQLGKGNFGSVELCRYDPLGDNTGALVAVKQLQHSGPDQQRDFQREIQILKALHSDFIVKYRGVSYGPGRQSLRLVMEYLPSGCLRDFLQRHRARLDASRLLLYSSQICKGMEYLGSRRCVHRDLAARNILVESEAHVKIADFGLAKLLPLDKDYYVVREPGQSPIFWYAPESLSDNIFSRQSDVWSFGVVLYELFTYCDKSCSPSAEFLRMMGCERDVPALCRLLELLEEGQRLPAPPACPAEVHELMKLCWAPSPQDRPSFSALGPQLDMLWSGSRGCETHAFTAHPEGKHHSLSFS
Procedure: as §1, §2, §3, §4

| IC50 (JAK1 kinase) [nM] | IC50 (JAK2 kinase) [nM] | IC50 (JAK3 kinase) [nM] | SMILES |
| --- | --- | --- | --- |
| 75.8 | 23 | 1.3 | CN(c1ccccc1-c1csc2cnc(Nc3cnn(C)c3)nc12)S(C)(=O)=O [Compound 28, N-methyl-N-(2-{2-[(1-methyl-1H-pyrazol-4-yl)amino]thieno[3,2-d]pyrimidinyl-7-yl}phenyl)methanesulfonamide] |
| 43 | 1.7 | 1.5 | COc1ccccc1-c1c(C)sc2cnc(Nc3cnn(CCN4CCN(C)CC4)c3)nc12 [Compound 22] |
| 41 | 36 | 33.7 | Cc1sc2cnc(Nc3cnn(C)c3)nc2c1-c1ccccc1N(C)C [Compound 41, N-{7-[2-(dimethylamino)phenyl]-6-methylthieno[3,2-d]pyrimidin-2-yl}-1-methyl-1H-pyrazol-4-amine] |
| 13 | 0.82 | 0.41 | Cc1sc2cnc(Nc3cnn(C4CCN(C(=O)CO)CC4)c3)nc2c1-c1cccc2c1OCC2 [Compound 36, 1-[4-(4-{[7-(2,3-dihydro-1-benzofuran-7-yl)-6-methylthieno[3,2-d]pyrimidinyl-2-yl]amino}-1H-pyrazol-1-yl)piperidinyl-1-yl]-2-hydroxyacetamide] |
| 16 | 1.3 | 3.1 | COc1cc(S(C)(=O)=O)ccc1-c1c(C)sc2cnc(Nc3cnn(C)c3)nc12 [Compound 4] |
| 58 | 2.1 | 9.8 | COc1cc(S(C)(=O)=O)ccc1-c1cccc2cnc(Nc3cnn(C4CCNCC4)c3)nc12 [Compound 49, 8-(4-methylsulfonyl-2-methoxyphenyl)-N-[1-(4-piperidin)-1H-pyrazol-4-yl]quinazolin-2-amine] |
| 13 | 1.8 | 2.1 | COc1cc(O[C@H]2CCOC2)ccc1-c1c(C)sc2cnc(Nc3cnn(C)c3)nc12 [Compound 15, N-(7-{2-methoxy-4-[(3S)-3-tetrahydrofuranoxy]phenyl}-6-methylthieno[3,2-d]pyrimidinyl-2-yl]-1-methyl-1H-pyrazol-4-amine] |
| 5.1 | 0.94 | 0.73 | COc1cc(OCCCS(C)(=O)=O)ccc1-c1c(C)sc2cnc(Nc3cnn(C)c3)nc12 [Compound 11, N-{7-[4-(3-methylsulfonylpropoxy)-2-methoxyphenyl]-6-methylthieno[3,2-d]pyrimidinyl-2-yl]-1-methyl-1H-pyrazol-4-amine] |
| 13 | 1.2 | 1.8 | COc1ccc(-c2c(C)sc3cnc(Nc4cnn(C)c4)nc23)c(OC)c1 [Compound 7, N-[7-(2,4-dimethoxyphenyl)-6-methylthieno[3,2-d]pyrimidinyl-2-yl]-1-methyl-1H-pyrazol-4-amine] |
| 34 | 6.1 | 6.4 | COc1cc(OCCCN2CCC2)ccc1-c1c(C)sc2cnc(Nc3cnn(C)c3)nc12 [Compound 16] |
| 10 | 2.3 | 1.6 | COc1cc(F)ccc1-c1c(C)sc2cnc(Nc3cnn(CCCN4CCCC4)c3)nc12 [Compound 27, N-[7-(4-fluoro-2-methoxyphenyl)-6-methylthieno[3,2-d]pyrimidinyl-2-yl]-1-[3-(1-pyrrolidinyl)propyl]-1H-pyrazol-4-amine] |
| 30.4 | 0.8 | 15.9 | Cc1sc2cnc(Nc3cnn(C)c3)nc2c1-c1ccccc1OC(C)C [Compound 29, 1-Methyl-N-{6-methyl-7-[2-(isopropoxy)phenyl]thieno[3,2-d]pyrimidinyl-2-yl]-1H-pyrazol-4-amine] |
| 54 | 7.7 | 16 | c1cc2c(c(-c3cccc4cnc(Nc5cnn(C6CCNCC6)c5)nc34)c1)OCC2 [Compound 44, 8-(2,3-Dihydro-1-benzofuran-7-yl)-N-[1-(4-piperidin)-1H-pyrazol-4-yl]quinazolin-2-amine] |
| 9 | 0.94 | 1.3 | COc1cc(OCCCS(C)(=O)=O)ccc1-c1c(C)sc2cnc(Nc3cnn(CCO)c3)nc12 [Compound 24, 2-(4-{[7-(4-(3-methylsulfonylpropoxy)-2-methoxyphenyl]-6-methylthieno[3,2-d]pyrimidinyl-2-yl}amino)-1H-pyrazol-1-yl]-1-ethanol] |
| 16 | 2.3 | 1.3 | COc1cc(OCCCN2CCOCC2)ccc1-c1c(C)sc2cnc(Nc3cnn(C)c3)nc12 [Compound 17, N-(7-{2-methoxy-4-[3-(4-morpholinyl)propoxy]phenyl}-6-methylthieno[3,2-d]pyrimidinyl-2-yl)-1-methyl-1H-pyrazol-4-amine] |
| 10.6 | 1.1 | 3.6 | Cc1sc2cnc(Nc3cnn(C)c3)nc2c1-c1ccccc1OC(F)F [Compound 10, N-{7-[2-(difluoromethoxy)phenyl]-6-methylthieno[3,2-d]pyrimidinyl-2-yl]-1-methyl-1H-pyrazol-4-amine] |
| 3.6 | 0.6 | 1.3 | COc1ccccc1-c1c(C)sc2cnc(Nc3cnn(C4CCN(C)CC4)c3)nc12 [Compound 25, N-[7-(2-methoxyphenyl)-6-methylthieno[3,2-d]pyrimidinyl-2-yl]-1-(1-methylpiperidin-4-yl)-1H-pyrazol-4-amine] |
| 8.5 | 1.9 | 5.1 | Cc1sc2cnc(Nc3cnn(C)c3)nc2c1-c1cccc2c1OCO2 [Compound 30, N-[7-(2H-1,3-benzodioxol-4-yl)-6-methylthieno[3,2-d]pyrimidinyl-2-yl]-1-methyl-1H-pyrazol-4-amine] |
| 58 | 9.6 | 3 | COc1ccccc1-c1cncc2cnc(Nc3cnn(C4CCNCC4)c3)nc12 [Compound 47, N-[8-(2-methoxyphenyl)pyridino[4,3-d]pyrimidin-2-yl]-1-(4-piperidin)-1H-pyrazol-4-amine] |
| 7.2 | 1.7 | 1 | COc1ncccc1-c1c(C)sc2cnc(Nc3cnn(C)c3)nc12 [Compound 43] |
| 20 | 4.3 | 4.5 | COc1cc(OCCCN2CCCC2)ccc1-c1c(C)sc2cnc(Nc3cnn(C)c3)nc12 [Compound 18, N-(7-{2-methoxy-4-[3-(1-pyrrolidinyl)propoxy]phenyl}-6-methylthieno[3,2-d]pyrimidinyl-2-yl)-1-methyl-1H-pyrazol-4-amine] |
| 3.8 | 0.7 | 0.84 | COc1ccccc1-c1c(C)sc2cnc(Nc3cnn(C4CCNCC4)c3)nc12 [Compound 35, N-[7-(2-methoxyphenyl)-6-methylthieno[3,2-d]pyrimidinyl-2-yl]-1-(piperidinyl-4-yl)-1H-pyrazol-4-amine] |
| 1.3 | 0.31 | 0.39 | COc1ccccc1-c1c(C)sc2cnc(Nc3cnn(CCO)c3)nc12 [Compound 21, 2-(4-{[7-(2-methoxyphenyl)-6-methylthieno[3,2-d]pyrimidinyl-2-yl]amino}-1H-pyrazol-1-yl)-1-ethanol] |
